From US20250099485A1, “COMPOSITIONS FOR PROMOTING HAIR GROWTH” (ESTETRA SRL, priority 2021, published 2025)

Assays:
[1] = system: fibroblasts isolated from female C57Bl1/6 mice; test: Fibroblast monolayer scratch assay, mouse; type: cell-based; conditions: 10^−7 M, compared with E2
Protocol: Confluent wells of both primary keratinocytes and fibroblasts were subjected to a highly validated scratch wounding procedure (using a 1 mL sterile filter tip). Post-scratching, cells were rinsed with DPBS and cell-specific media containing treatments added to each well. Cells were imaged on a ptychographic live cell imaging platform (Livecyte 2TM, Phasefocus) for 24-48 hours. Automated tracking of individual unlabeled cells will be combined with 3D cell measurements to quantify a range of wound-relevant cell parameters including scratch closure rate.
Dose range finding experiments were conducted with E4 (10^−10M to 10^−6M) and E2 with and without Mitomycin C (MMC, to inhibit proliferation) using vehicle as negative controls.
The assay was performed in the phenol red-free cell culture media containing charcoal stripped fetal bovine serum, using fibroblasts isolated from female C57Bl1/6 mice and from surplus abdominal skin donated by three female donors.

[2] = system: human epidermal keratinocytes; test: Wound healing gene expression RT-qPCR array, keratinocytes; type: cell-based; conditions: 10^−7M, 15 h, relative to ethanol control
From the text: The healing properties of E4 were investigated at the transcriptional level by studying gene expression changes by RT-qPCR. 84 genes qPCR arrays focusing on the wound healing process were used. These arrays contain genes important for the three phases of wound healing process, including extra-cellular matrix (ECM) remodeling factors, inflammatory cytokines and chemokines as well as growth factors and major signaling molecules. The changes in gene expression were interpreted in a dermo cosmetic context in order to highlight the potential benefits of the E4 towards wound healing.
After 24 h seeded on 25 cm^2 culture flasks (T25), cells were treated with E4 during 15 h. […]
The RNA concentration was determined by spectrophotometric measurement (QIAxpert, Qiagen) and the RNA quality was analyzed by capillarity electrophoresis (Agilent Bioanalyzer 2100—Agilent RNA 6000 Nano Kit). […]
The qPCR method was used to quantify the expression changes of specific markers in the cDNA populations. […]
The amplification of target genes was performed following the supplier's recommendations thanks to a “HotStart Taq DNA Polymerase” and to the use of SYBR Green as detection method. The SYBR Green is a marker emitting fluorescence once inserted between the paired bases of nucleic acids. The fluorescence intensity is thus directly proportional to the quantity of produced amplicons. […]

C[C@]12CC[C@@H]3c4ccc(O)cc4CC[C@H]3[C@@H]1[C@@H](O)[C@@H](O)[C@@H]2O [E4, 1,3,5 (10)-estratrien-3,15alpha,16alpha,17beta-tetrol]
in vitro wound closure, mouse fibroblasts scratch assay [1]: promotes in vitro wound closure to a similar extent as E2 | MMP2 (Matrix metalloproteinase-2) expression, FC [2]: 1.1434 Fold Change (FC) | TIMP1 (Metalloproteinase inhibitor 1) expression, FC [2]: 0.8949 Fold Change (FC)
